Some results are limits rather than exact numbers.

The assay concerns beta-TC6 cells. Kind of assay: Insulin HTRF assay (relative activity Ar) in beta-TC6 cells. It counts as cell-based, mouse. Particulars: Mus musculus, Beta-TC6, 4 h, insulin HTRF, supernatant of beta-TC6 cells, incubation with test compound at 37°C for 2, 3, 4h; read-out: Ar (relative activity). A digest of the protocol: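 beta-TC6 cells (15k/well, seeded 24 or 48 h) washed, then exposed to compound in induction buffer (0.5% DMSO final) for 2, 3 or 4 h at 37°C.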
Background: TR-FRET usually uses a lanthanide donor and a delayed reading to cut background.
`COc1ccc(-c2nc3c(NCc4ccccc4)nccc3[nH]2)cc1OC` [Compound 347, N-benzyl-2-(3,4-dimethoxyphenyl)-1H-imidazo[4,5-c]pyridin-4-amine]: the Emax fell in the range of 50 to 100%.
With `CN1CCN(c2ccc(Nc3nccc4[nH]c(-c5ccsc5)cc34)cc2)CC1` [Compound 257, N-[4-(4-methylpiperazin-1-yl)phenyl]-2-(3-thienyl)-1H-pyrrolo[3,2-c]pyridin-4-amine] the figure was 30 to 50%; with `CC(=O)Nc1ccc(Nc2cc3c(cn2)cc(-c2ccc(C(=O)N(C)C)cc2)n3Cc2ccccc2)cc1` [Compound 57, 4-[6-(4-acetamidoanilino)-1-benzyl-pyrrolo[3,2-c]pyridin-2-yl]-N,N-dimethyl-benzamide], 30 to 50%; with `CNc1nc2cnc(-c3cccc(C(F)(F)F)c3)cc2n1C` [Compound 831, N,1-dimethyl-6-[3-(trifluoromethyl)phenyl]imidazo[4,5-c]pyridin-2-amine], 0 to 30%.
For `CN(C)C(=O)c1ccc(-c2cc3cnc(Nc4cccc(N(C)C)c4)cc3[nH]2)cc1` [Compound 27, 4-[6-[3-(dimethylamino)anilino]-1H-pyrrolo[3,2-c]pyridin-2-yl]-N,N-dimethyl-benzamide], the Emax lay within 50 to 100%.
With `COc1cccc(-c2cc3c(Nc4ccc(NC(C)=O)cc4)nccc3[nH]2)c1` [Compound 306, N-[4-[[2-(3-methoxyphenyl)-1H-pyrrolo[3,2-c]pyridin-4-yl]amino]phenyl]acetamide], the Emax was 50 to 100%.
As for `COc1ccc(Nc2cc3c(cn2)cc(-c2cccc(N(C)C(C)=O)c2)n3C)cc1` [Compound 166, N-[3-[6-(4-methoxyanilino)-1-methyl-pyrrolo[3,2-c]pyridin-2-yl]phenyl]-N-methyl-acetamide], the figure is 30 to 50%.
With `CNc1nc2cnc(Nc3cc(OC)cc(C(F)(F)F)c3)cc2n1Cc1ccco1` [Compound 767, 1-(2-furylmethyl)-N6-[3-methoxy-5-(trifluoromethyl)phenyl]-N2-methyl-imidazo[4,5-c]pyridine-2,6-diamine] the figure was 0 to 30%.
With `Cn1cnc2c(Nc3ccc4[nH]ccc4c3)nccc21` [Compound 448, N-(1H-indol-5-yl)-1-methyl-imidazo[4,5-c]pyridin-4-amine] the figure was 50 to 100%; with `CC(=O)Nc1ccc(Nc2cc3c(cn2)ncn3C)cc1` [Compound 726, N-[4-[(1-methylimidazo[4,5-c]pyridin-6-yl)amino]phenyl]acetamide], 50 to 100%.
On to `Cn1c(NCC2CC2)nc2cnc(Nc3ccc4c(c3)OCO4)cc21` [Compound 598, N6-(1,3-benzodioxol-5-yl)-N2-(cyclopropylmethyl)-1-methyl-imidazo[4,5-c]pyridine-2,6-diamine], for which the Emax fell in the range of 30 to 50%.
With `COc1cccc(Nc2cc3c(cn2)nc(-c2ccc(OC)c(OC)c2)n3C)c1` [Compound 718, 2-(3,4-dimethoxyphenyl)-N-(3-methoxyphenyl)-1-methyl-imidazo[4,5-c]pyridin-6-amine] the figure was 50 to 100%; with `c1ccc(-c2nc3cnccc3[nH]2)nc1` [Compound 742, 2-(2-pyridyl)-1H-imidazo[4,5-c]pyridine], 30 to 50%.
With `NC(=O)c1ccc(Nc2nccc3[nH]c(-c4ccccc4)cc23)cc1` [Compound 318, 4-[(2-phenyl-1H-pyrrolo[3,2-c]pyridin-4-yl)amino]benzamide] the figure was greater than 100%.
Turning to `CN(C)C(=O)c1ccc(-c2cc3c(Nc4ccc5c(c4)OCCO5)nccc3n2C)cc1` [Compound 214, 4-[4-(2,3-dihydro-1,4-benzodioxin-6-ylamino)-1-methyl-pyrrolo[3,2-c]pyridin-2-yl]-N,N-dimethyl-benzamide], the Emax is 50 to 100%.
As for `CNc1nc2cnc(Nc3ccc4c(c3)OCCO4)cc2n1CCN1CCOCC1` [Compound 554, N6-(2,3-dihydro-1,4-benzodioxin-6-yl)-N2-methyl-1-(2-morpholinoethyl)imidazo[4,5-c]pyridine-2,6-diamine], the figure is 50 to 100%; as for `CNc1nc2cnc(-c3ccc4ccccc4c3)cc2n1Cc1ccc(OC)c(OC)c1` [Compound 668, 1-[(3,4-dimethoxyphenyl)methyl]-N-methyl-6-(2-naphthyl)imidazo[4,5-c]pyridin-2-amine], 50 to 100%.
On to `CCN(CC)CCNC(=O)c1ccc(Nc2nccc3[nH]c(-c4cccnc4)nc23)cc1` [Compound 359, N-(2-diethylaminoethyl)-4-[[2-(3-pyridyl)-1H-imidazo[4,5-c]pyridin-4-yl]amino]benzamide], for which the Emax fell in the range of 30 to 50%.
As for `CNc1nc2cnc(Nc3ccc4c(c3)OCO4)cc2n1-c1ccccc1` [Compound 512, N6-(1,3-benzodioxol-5-yl)-N2-methyl-1-phenyl-imidazo[4,5-c]pyridine-2,6-diamine], the figure is 50 to 100%.
As for `CC(=O)c1cccc(Nc2cc3[nH]c(-c4ccc(C(=O)N(C)C)cc4)cc3cn2)c1` [Compound 42, 4-[6-(3-acetylanilino)-1H-pyrrolo[3,2-c]pyridin-2-yl]-N,N-dimethyl-benzamide], the figure is 50 to 100%.
With `COc1cccc(-c2cc3c(Nc4ccc(OC)nc4)nccc3[nH]2)c1` [Compound 307, 2-(3-methoxyphenyl)-N-(6-methoxy-3-pyridyl)-1H-pyrrolo[3,2-c]pyridin-4-amine] the figure was 50 to 100%; with `CNc1nc2cnc(Nc3ccc(O)cc3)cc2n1Cc1ccc(OC)c(OC)c1` [Compound 663, 4-[[1-[(3,4-dimethoxyphenyl)methyl]-2-(methylamino)imidazo[4,5-c]pyridin-6-yl]amino]phenol], 50 to 100%.
Consider `COc1ccc(Nc2nccc3[nH]c(-c4ccsc4)cc23)cc1OC` [Compound 253, N-(3,4-dimethoxyphenyl)-2-(3-thienyl)-1H-pyrrolo[3,2-c]pyridin-4-amine], for which the Emax lay in the range of 50 to 100%.
With `CC(=O)c1cccc(Nc2cc3[nH]c(-c4cn[nH]c4)cc3cn2)c1` [Compound 118, 1-[3-[[2-(1 H-pyrazol-4-yl)-1H-pyrrolo[3,2-c]pyridin-6-yl]amino]phenyl]ethanone], the Emax is greater than 100%.
With `Cn1cc(-c2cc3c(Nc4ccc(S(C)(=O)=O)cc4)nccc3[nH]2)cn1` [Compound 246, 2-(1-methylpyrazol-4-yl)-N-(4-methylsulfonylphenyl)-1H-pyrrolo[3,2-c]pyridin-4-amine] the figure was greater than 100%.
With `CNc1nc2cnc(Nc3ccc(OC)c(O)c3)cc2n1-c1cccc(C(F)(F)F)c1` [Compound 551, 2-methoxy-5-[[2-(methylamino)-1-[3-(trifluoromethyl)phenyl]imidazo[4,5-c]pyridin-6-yl]amino]phenol] the figure was 50 to 100%; with `Cn1cc(-c2cc3cnc(N4CCOCC4)cc3n2C)cn1` [Compound 145, 4-[1-methyl-2-(1-methylpyrazol-4-yl)pyrrolo[3,2-c]pyridin-6-yl]morpholine], greater than 100%.
As for `CC(=O)Nc1ccc(Nc2cc3c(cn2)nc(-c2ccco2)n3C)cc1` [Compound 708, N-[4-[[2-(2-furyl)-1-methyl-imidazo[4,5-c]pyridin-6-yl]amino]phenyl]acetamide], the figure is greater than 100%; as for `COc1cc(Nc2cc3[nH]c(-c4ccc(C(=O)N(C)C)cc4)cc3cn2)cc(OC)c1OC` [Compound 18, N,N-dimethyl-4-[6-(3,4,5-trimethoxyanilino)-1H-pyrrolo[3,2-c]pyridin-2-yl]benzamide], 50 to 100%.
Regarding `COc1ccc(CNc2nc3cnc(Nc4ccc(N5CCN(C)CC5)cc4)cc3n2C)cc1OC` [Compound 605, N2-[(3,4-dimethoxyphenyl)methyl]-1-methyl-N6-[4-(4-methylpiperazin-1-yl)phenyl]imidazo[4,5-c]pyridine-2,6-diamine], the Emax fell in the range of 50 to 100%.
As to `Cn1c(NCC2CCCO2)nc2cnc(Nc3cccc(Cl)c3)cc21` (stereo not shown) [Compound 642, N6-(3-chlorophenyl)-1-methyl-N2-(tetrahydrofuran-2-ylmethyl)imidazo[4,5-c]pyridine-2,6-diamine], the Emax fell in the range of 50 to 100%.
With `c1ccc(Cn2c(-c3ccccc3)cc3cnc(Nc4ccncn4)cc32)cc1` [Compound 184, 1-benzyl-2-phenyl-N-pyrimidin-4-yl-pyrrolo[3,2-c]pyridin-6-amine] the figure was 30 to 50%.
As for `Cn1c(-c2ccc3ccccc3n2)nc2cnccc21` [Compound 778, 2-(1-methylimidazo[4,5-c]pyridin-2-yl)quinoline], the figure is 0 to 30%; as for `Cn1c(-c2cccc(F)c2)nc2cnc(Nc3ccc4c(c3)OCO4)cc21` [Compound 714, N-(1,3-benzodioxol-5-yl)-2-(3-fluorophenyl)-1-methyl-imidazo[4,5-c]pyridin-6-amine], 50 to 100%; as for `Cn1c(NCC2CCCO2)nc2cnc(-c3ccc4ccccc4c3)cc21` (stereo not shown) [Compound 850, 1-methyl-6-(2-naphthyl)-N-(tetrahydrofuran-2-ylmethyl)imidazo[4,5-c]pyridin-2-amine], 30 to 50%.
As for `CNc1nc2cnc(Nc3ccc(OC(F)(F)F)cc3)cc2n1CCOC` [Compound 773, 1-(2-methoxyethyl)-N2-methyl-N6-[4-(trifluoromethoxy)phenyl]imidazo[4,5-c]pyridine-2,6-diamine], the figure is 0 to 30%; as for `CN(C)C(=O)c1ccc(-c2cc3c(N4CCOCC4)nccc3n2C)cc1` [Compound 188, N,N-dimethyl-4-(1-methyl-4-morpholino-pyrrolo[3,2-c]pyridin-2-yl)benzamide], 0 to 30%.
On to `CNc1nc2cnc(Nc3ccc(F)cc3)cc2n1C` [Compound 611, N6-(4-fluorophenyl)-N2,1-dimethyl-imidazo[4,5-c]pyridine-2,6-diamine], for which the Emax is 30 to 50%.
Regarding `COc1cc(Nc2cc3c(cn2)nc(C)n3C)cc(OC)c1OC` [Compound 697, 1,2-dimethyl-N-(3,4,5-trimethoxyphenyl)imidazo[4,5-c]pyridin-6-amine], the Emax lay within 50 to 100%.
With `Cn1cc(-c2cc3cnc(N4CCOCC4)cc3n2Cc2ccccc2)cn1` [Compound 155, 4-[1-benzyl-2-(1-methylpyrazol-4-yl)pyrrolo[3,2-c]pyridin-6-yl]morpholine] the figure was 50 to 100%.

Values taken from patent EP2818472A1, “Imidazo[4,5-c]pyridine and pyrrolo[3,2-c]pyridine compounds as G-protein-coupled receptor kinase 5 (GRK5) modulators” (Max-Planck-Gesellschaft zur Förderung der Wissenschaften …, priority 2013, dated 2014).
